Tested on: SARS-CoV-2 (D614G) pseudovirus
Conditions: 24 h

**Q.** Which IC50 does the source give for `CC[C@H](C)[C@H](NC(=O)[C@H](C)NC(=O)[C@H](CCC(=O)O)NC(=O)[C@H](CCC(=O)O)NC(=O)[C@H](CC(C)C)NC(=O)[C@H](CCCCN)NC(=O)[C@H](CCCCN)NC(=O)[C@H](CCSC)NC(=O)[C@H](CCC(=O)O)NC(=O)[C@H](Cc1ccc(O)cc1)NC(=O)[C@H](CCC(=O)O)NC(=O)[C@H](CC(C)C)NC(=O)[C@H](CC(=O)O)NC(=O)[C@H](CC(C)C)NC(=O)[C@H](Cc1ccccc1)NC(=O)[C@@H](NC(=O)[C@@H](NC(=O)[C@H](CC(N)=O)NC(=O)[C@@H](NC(=O)[C@H](CCC(N)=O)NC(=O)[C@H](CC(=O)O)NC(=O)[C@H](CC(C)C)NC(=O)[C@H](CO)NC(C)=O)[C@@H](C)CC)C(C)C)[C@@H](C)O)C(=O)N[C@@H](CCCCN)C(=O)N[C@@H](CCCCN)C(=O)N[C@@H](CC(C)C)C(=O)N[C@@H](CCC(=O)O)C(=O)N[C@@H](CCC(=O)O)C(=O)N[C@@H](CO)C(=O)N[C@@H](Cc1ccc(O)cc1)C(=O)N[C@H](C(=O)N[C@@H](CC(=O)O)C(=O)N[C@@H](CC(C)C)C(=O)N[C@@H](CCCCN)C(=O)N[C@@H](CCC(=O)O)C(=O)N[C@@H](CC(C)C)C(N)=O)[C@@H](C)CC` [EK1] here?
**A.** Its IC50 is 0.308 µM.
